Key:
[1] = target: T1, glycine binding pocket of the NMDA receptor (Rattus norvegicus, UniProt P35439); assay: [3H]-MDL-105,519 displacement studies on rat cortical membranes; conditions: displacement of 2 nM [3H]-MDL-105,519, rat cortical membranes, 4° C., 1 h; read-out: NMDA-MDL 105519-r-CTX - IC50
T1 construct: The cortex is dissected out and processed as described by Parsons, et al; from tissue; host or cells: rat cerebral cortex membranes (male Sprague-Dawley)
Method: [^3]MDL-105,519 Displacement Studies
For the evaluation of the binding affinity of the test compounds on the glycine binding pocket of the NMDA receptor, [^3H]-MDL-105,519 (GE Healthcare, Freiburg, Germany) displacement studies are performed using a 96-well plate robotic platform. MDL-105,519 (Baron et al., J Pharmacol Exp Ther 1996, 279(1), 62-68; Baron et al., European Journal of Pharmacology, 1997, 323(2-3), 181-192; Hoffner & Wanner, Neuroscience Letters, 1997, 226(2), 79-82) is a selective, high affinity antagonist at the NMDA receptor glycine site.
Tissue preparation is performed according to Foster & Wong (Br J Pharmacol, 1987, 91, 403-409) with some modifications. Anaesthetised male Sprague-Dawley rats (200-250 g, Janvier, Le Genest-Isle, France) are decapitated and their brains removed rapidly. The cortex is dissected out and processed as described by Parsons, et al. (J Pharmacol Exp Ther, 1997, 283(3), 1264-1275). For isolation of the cell membranes, the cortices are homogenized in 20 volumes of ice-cold 0.32 M sucrose (Sigma-Aldrich, Taufkirchen, Germany) using a glass-Teflon homogenizer. The homogenate is centrifuged at 1000×g for 10 minutes, the pellet is discarded and the supernatant centrifuged at 20,000×g for 20 minutes. The resulting pellet is re-suspended in 20 volumes of distilled water and centrifuged for 20 minutes at 8000×g. The supernatant and the buffy coat are then centrifuged three times (48,000×g for 20 minutes) in the presence of 50 mM Tris-HCl, pH 8.0 (assay buffer). All centrifugation steps are carried out at 4° C. After resuspension in 5 volumes of 50 mM Tris-HCl, pH 7.5, the membrane suspension is frozen rapidly at −80° C. On the day of assay, the membranes are thawed and washed four times by resuspension in 50 mM Tris-HCl, pH 7.5, and centrifugation at 48,000×g for 20 minutes. The final pellet is suspended in assay buffer. The amount of protein in the final membrane preparation is determined according to the method of Lowry, et al. (J. Biological Chemistry, 1951, 193, 256-275) with some modifications (Hartree, Analytical Biochemistry, 1972, 48, 422-427). The final protein concentration used for our studies is 400 μg/ml.
A robotic system designed for binding assays (Tecan Deutschland GmbH, Crailsheim, Germany) is loaded with the membrane solution, solutions for bound control (buffer/DMSO 20%), unlabeled glycine (1 mM) for evaluation of non-specific binding, all compounds to be tested (at 20-fold concentrations), radioligand and respective 96-well plates.
Before performing displacement studies, saturation experiments are performed to determine the equilibrium dissociation constant (Kd) of [^3H]-MDL-105,519, which is a parameter for the affinity of the radioligand to the binding site. The protein/receptor concentration is held constant whereas the amount of specific bound radioligand is determined using increasing concentrations of ligand.
On the basis of the saturation experiments, a final [^3H]-MDL-105,519 concentration of 2 nM is selected. Firstly, the assay plates are loaded with membrane solution and are shaken at 4° C. The mother plates are then prepared by pipetting the compounds (n=4) into assay buffer/20% DMSO to obtain the desired final concentrations. After transferring radioligand into the assay plates, the compounds are added (including the bound and the non-specific binding control). The final DMSO concentration is 1%. The assay plates are incubated and shaken at 4° C. for 1 h, before the mixture is exhausted as rapidly as possible via a vacuum manifold using the Multiscreen HTS glass fibre (type B) filter plates (Millipore, Schwalbach, Germany) under a constant vacuum of 450 mbar. The membranes are washed four times with cold assay buffer (100 μL). […]

[2] = target: T2, NMDA receptor glycine B site (Rattus norvegicus, UniProt P35439); assay: Whole cell patch-clamp recordings in cultured rat hippocampal neurons (NMDA/D-Serine evoked currents); type: cell-based; conditions: NMDA (200 μM) and D-Serine (1 μM), holding potential −70 mV, read-out: NMDA-PC-r-HIC-NAM - IC50
T2 construct: Hippocampi are then isolated from the brains of at least 8 embryos after decapitation; endogenous in cells; host or cells: primary cultured hippocampal neurons from E20 Sprague-Dawley rat embryos, 11-15 DIV
Method: Antagonistic potencies of the test compounds are functionally evaluated using electrophysiological whole cell patch-clamp recordings and/or fluorometric intracellular Ca^2+-imaging (FLIPR) screens.
Cell preparation is performed as described by Parsons, et al. (Neuropharmacology, 1998, 37(6), 719-727). The female Sprague-Dawley rat is anaesthetised by placing in a saturated CO2-euthanasia chamber under further quiet CO2-influx. Under these conditions the rat loses consciousness after a few seconds and is then sacrificed by cervical dislocation. After opening the abdominal cavity, embryos (E20) are removed and stored in ice cold Ca^2+- and Mg^2+-free Hank's Buffered Salt Solution (pH 7.3), containing 4 g/l glucose (HBSS-CMF). Hippocampi are then isolated from the brains of at least 8 embryos after decapitation, transferred into ice cold HBSS-CMF and washed 3 to 4 times.
Hippocampi are pre-incubated for 8 min with a 0.66% trypsin (Sigma-Aldrich) and 0.1% (20 U/ml) DNAase solution (Sigma-Aldrich) in Ca^2+-free Phosphate Buffered Saline (PBS-CF) and washed 3 times with HBSS-CMF. Cells are then mechanically dissociated by trituration in a PBS-CF solution containing 0.05% (10 U/ml) DNAase and 0.3% of the trypsin inhibitor ovomucoid (all from Sigma-Aldrich). The cells are then centrifuged at 180×g for 10 minutes, and the cell pellet re-suspended in basal Minimum essential medium (MEM, Invitrogen, Karlsruhe, Germany), again carefully triturated to ensure maximal dissociation and finally plated in the flexiPERM inserts (Thermo Fisher Scientific, Langenselbold, Germany) at a density of 15×10^3 cells/cm^2 (0.5 ml/insert) onto poly-DL-ornithine (Sigma) and mouse laminin (Invitrogen) pre-coated plastic petri dishes. After 1 hour the cells become attached to the bottom of the dish and the inserts may be removed. The cells are then nourished with 2 ml MEM supplemented with 5% foetal calf serum (FCS) and 5% horse serum and incubated at 37° C. with 95% air and 5% CO2 at 95% humidity. After 4 days in vitro (DIV) further glial mitosis is inhibited by adding 10 μl of AraC (5 μM endconcentration). The medium is completely exchanged after an additional 2 DIV and again, but only partly (50%), after 8 DIV. The cells are used for electrophysiological recordings after 11-15 DIV.
Cells are visualised using an inverted microscope and selected for patching based upon their position and morphology. Voltage clamp recordings are made in the whole cell configuration of the patch clamp technique at a holding potential of −70 mV with the aid of an EPC-10 amplifier in combination with pipette manipulator. Patch clamp pipettes are pulled from borosilicate glass using a horizontal puller (P-97 Puller, Sutter Instruments, USA) and, when filled with intracellular solution, have resistances of 1-4 MΩ.
Solutions are delivered via a home-made gravity driven very fast perfusion system (<10 ms) including valves to switch flow on and off in combination with a stepper motor-driven double-barreled theta glass application pipette in order to expose cells to either agonist-free or agonist-containing solutions in presence or absence of antagonist.
The intracellular solution used consists of: 120 mM CsCl, 10 mM EGTA, 1 mM MgCl2, 200 μM CaCl2, 10 mM glucose and 22 mM tetraethyl ammonium chloride (TEA-CL). The corresponding extracellular bath solution contains: 140 mM NaCl, 3 mM KCl, 10 mM glucose, 10 mM HEPES, 1.5 mM CaCl2 and 4.5 mM sucrose (all from Sigma-Aldrich) pH 7.3, and is supplemented with 0.3 μM tetrodotoxin (TTX, Tocris, Bristol, U.K.) to block voltage-activated sodium channels and 0.25 μM bicuculline (Sigma-Aldrich) to block GABAA receptors. […]

| SMILES | IC50 [1] [nM] | melting point | IC50 [2] [nM] |
| --- | --- | --- | --- |
| O=C(O)c1cc2cc(Cl)ccc2nc1N[C@@H](Cc1ccccc1)C(=O)O [Example 1, 2-((S)-1-Carboxy-2-phenyl-ethylamino)-6-chloro-quinoline-3-carboxylic acid] | 410 | 153 to 159 °C | – |
| O=C(O)c1cc2cc(Cl)ccc2nc1NC(Cc1c[nH]c2ccc(F)cc12)C(=O)O (centres unmarked) [Example 25, 2-[1-Carboxy-2-(5-fluoro-1H-indol-3-yl)-ethylamino]-6-chloro-quinoline-3-carboxylic acid] | 2120 | – | 930 |
| O=C(O)c1cc2cc(Cl)ccc2nc1N[C@@H](Cc1ccc(O)c([N+](=O)[O-])c1)C(=O)O [Example 41, 2-[(S)-1-Carboxy-2-(4-hydroxy-3-nitro-phenyl)-ethylamino]-6-chloro-quinoline-3-carboxylic acid] | 1870 | – | 1030 |
| O=C(O)c1cc2cc(Cl)ccc2nc1N[C@@H](Cc1ccncc1)C(=O)O [Example 55, 2-((S)-1-Carboxy-2-pyridin-4-yl-ethylamino)-6-chloro-quinoline-3-carboxylic acid] | 4390 | 155 to 158 °C (dec.) | – |
| O=C(O)c1cc2cc(Br)cc(Br)c2nc1NC(Cc1ccccc1)C(=O)O (centres unmarked) [Example 56, 6,8-Dibromo-2-(1-carboxy-2-phenyl-ethylamino)-quinoline-3-carboxylic acid] | 1730 | 115 to 117 °C | 1240 |
| Cc1cc(Cl)cc2cc(C(=O)O)c(NC(Cc3ccccc3)C(=O)O)nc12 (centres unmarked) [Example 95, 2-(1-Carboxy-2-phenyl-ethylamino)-6-chloro-8-methylquinoline-3-carboxylic acid] | 2290 | > 145 °C (dec.) | – |
| Cc1cc(Cl)cc2cc(C(=O)O)c(NC(Cc3c[nH]c4ccccc34)C(=O)O)nc12 (centres unmarked) [Example 97, 2-[1-Carboxy-2-(1H-indol-3-yl)-ethylamino]-6-chloro-8-methylquinoline-3-carboxylic acid] | 2490 | > 160 °C (dec.) | – |
| O=C(O)c1cc2cc(Cl)ccc2nc1NC(Cc1ccc(Nc2ccnc3ccccc23)cc1)C(=O)O (centres unmarked) [Example 104, 2-{1-Carboxy-2-[4-(quinolin-4-ylamino)-phenyl]-ethylamino}-6-chloro-quinoline-3-carboxylic acid] | 700 | > 200 °C (dec.) | – |
| O=C(O)c1cc2cc(Cl)cc(Cl)c2nc1N[C@@H](Cc1c[nH]c2ccccc12)C(=O)O [Example 155, 2-[(S)-1-Carboxy-2-(1H-indol-3-yl)-ethylamino]-6,8-dichloro-quinoline-3-carboxylic acid] | 1030 | – | – |
| O=C(O)c1cc2cc(Cl)ccc2nc1N[C@@H](Cc1cccs1)C(=O)O [Example 156, 2-((S)-1-Carboxy-2-thiophen-2-yl-ethylamino)-6-chloro-quinoline-3-carboxylic acid] | 1910 | > 250 °C (dec.) | – |

— patent US8288549B2, “Glycine B antagonist” (Merz Pharma GmbH & Co. KGaA, priority 2008, dated 2012)
